Test results taken from US20250241905A1, “3-BETA-HSD1 INHIBITORS AND COMPOSITIONS AND USES THEREOF” (The Cleveland Clinic Foundation, priority 2022, published 2025).
Like-named read-outs stand apart in the source and are kept apart here.

Columns and labels:
[1] = target: human 3β-HSD1; assay: 3β-HSD1 inhibition, colorimetric NADH detection assay; format: biochemical; settings: purified recombinant human 3β-HSD1, 50 μM DHEA, 2 mM NAD+, 1 hour, room temperature, duplicate 10-point CRC; read-out: IC50 (nM), in vitro NADH inhibition
Sequence of human 3β-HSD1 (P14060 2-373 limits assumed): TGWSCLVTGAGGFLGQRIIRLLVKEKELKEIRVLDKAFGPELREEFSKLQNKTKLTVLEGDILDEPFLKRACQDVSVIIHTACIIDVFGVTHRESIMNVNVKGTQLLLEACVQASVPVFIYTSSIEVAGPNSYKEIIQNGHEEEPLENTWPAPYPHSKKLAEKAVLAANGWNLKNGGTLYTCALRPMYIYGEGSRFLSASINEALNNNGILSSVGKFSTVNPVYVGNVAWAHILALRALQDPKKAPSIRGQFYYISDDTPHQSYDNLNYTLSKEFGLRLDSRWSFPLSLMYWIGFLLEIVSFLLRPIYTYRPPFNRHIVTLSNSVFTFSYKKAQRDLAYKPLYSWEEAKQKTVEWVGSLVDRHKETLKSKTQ
Description: Enzymatic turnover was quantified through NADH generation by purified, recombinant human 3β-HSD1 (expressed in Sf9 insect cells) in the presence of steroidal substrate trans-Dehydroandrosterone (DHEA) that was placed slightly above the experimentally determined Km and saturating amounts of co-factor Nicotinamide adenine dinucleotide (NAD^+). The sequence of recombinant human 3β-HSD1 used is […] […] […] […] […] […] […] (SEQ ID NO: 3). DHEA and NAD+ were enzymatically converted to androstenedione and NADH, respectively. Final NADH concentrations were spectroscopically quantified using a commercially available Amplite™ Colorimetric NADH Assay Kit which utilizes an NADH probe with an absorbance wavelength of 460 nm. Enzymatic assays with a final volume of 25 μL were ran in a 384-well, Greiner Bio-One UV-STAR® assay plate in 50 mM TRIS pH 8.0 assay buffer. […] Compound stocks at 10 mM in DMSO were serial diluted 5-fold in DMSO to generate an ECHO® compatible source plate. 125 nL of DMSO, Trilostane, or serial diluted compounds were then acoustically transferred into an empty UV-STAR® assay plate to give a final assay concentration of 0.5% v/v DMSO. The stamp volume and dilution scheme can be adjusted to accommodate compound potency. The assay can tolerate up to a 5% v/v DMSO final assay concentration. 15 μL of 1 μg purified 3β-HSD1 and 50 μM DHEA (final assay volume concentration) was dispensed per well into the stamped plate, centrifuged for 1 minute at 1000 RPM, covered, and allowed to incubate for 15 minutes at room temp. Enzymatic reactions were initiated upon the addition of 10 μL of NAD^+ diluted in assay buffer to give a final assay volume concentration of 2 mM. The assay plate was centrifuged for 1 minute at 1000 RPM, covered, and incubated at room temperature for 1 hour. 25 μL Amplite™ Colorimetric NADH Assay Kit detection solution (prepared as recommended) was added to all reaction wells, the plate centrifuged for 1 minute at 1000 RPM, covered, and incubated for 15 minutes. Final absorbance values (λ=460 nm) are spectroscopically determined on BioTek® Cytation5 or Synergy4 plate readers. […] From the background subtracted values, the non-inhibited enzyme signal (DMSO treated) was averaged from 32 control reactions. The percent inhibition value was calculated by: % inhibition=(1−((background subtracted inhibited reaction)/(background subtracted non-inhibited average)))*100. The resulting percent inhibition was then plotted in duplicate against corresponding concentration values. The resulting CRCs were fit with a four parameter, variable slope log (inhibitor) vs response equation where Y=bottomvalue+ (topvalue−bottomvalue)/(1+10^((log IC50−X)*Hillslope)) to determine the IC50 values for tested compounds.

[2] = test system: C4-2 flank tumor; assay: CRPC C4-2 flank tumor model in mice; format: in vivo; settings: orchiectomized NSG male mice with DHEA pellets, 100 mg/kg in water with 20% Captisol, oral gavage twice daily
Description: The mouse study was performed under a protocol approved by the Institutional Animal Care and Use Committee of the Cleveland Clinic Lerner Research Institute. All NOD scid gamma (NSG) male mice (6 to 8 weeks old) were purchased from the Jackson Laboratory. 10^7 C4-2 cells were injected subcutaneously into mice with matrigel (total injection volume 100 μL). Once tumors reached 100 mm^3 (length×width×height×0.52), mice were surgically orchiectomized and implanted with 5 mg 90-day sustained-release DHEA pellets (Innovative Research of America) to mimic human adrenal DHEA production in patients with CRPC, then the mice were arbitrarily (but not strictly randomized) assigned to vehicle (n=6), Compound 1 (n=6), or Compound 5 (n=6). The mice were given vehicle, Compound 1 (100 mg/kg in water with 20% Captisol), or Compound 5 (100 mg/kg in water with 20% Captisol) by oral gavage twice daily.

[3] = test system: Androstenedione synthesis in C4-2 prostate cancer cells; assay: Cell line steroid metabolism: androstenedione synthesis inhibition (HPLC, [3H]-labeled androgens); format: cell-based; settings: Homo sapiens, serum-free RPMI-1640, [3H]-labeled androgens 25 nM
Description: Cells were seeded and incubated in 12-well plates with 0.15 million cells/well in RPMI-1640 medium with 10% FBS for ˜24 h at 37° C. Culture medium was then replaced with serum-free RPMI-1640 and a mixture of radioactive ([3H]-labeled) and non-radioactive androgens (final concentration, 25 nM; ˜600,000 cpm/well; PerkinElmer, Waltham, MA) plus inhibitor compounds at specified concentrations was added. […]
High-performance liquid chromatography (HPLC) analysis was performed on a Waters 1525 HPLC system (Waters Corp., Milford, MA). Dried samples were reconstituted in 50% methanol and injected into the HPLC. Steroids were separated on a Luna 150×4.6 mm, 3.0 μm particle size C18 reverse-phase column (Phenomenex, Torrance, CA) with a methanol/water gradient at 50° C. Column effluent was mixed with Liquiscint scintillation cocktail (National Diagnostics, Atlanta, GA) and analyzed using a β-RAM model 4 in-line radioactivity detector (LabLogic, Brandon, FL).

[4] = test system: C4-2 prostate cancer cells; assay: Cellular viability of C4-2 cells (CellTiter-Glo); format: cell-based, human; settings: 6 days, 1% FBS + DHEA, read-out: GI50 (μM), growth inhibition
Description: C4-2 cells were routinely maintained in RPMI+2 mM L-Glutamine+1× Anti-Anti+10% FBS. C4-2 cells were harvested by trypsinization for 90 seconds in 0.25% Trypsin-EDTA, counted with a Vi-Cell Blu cell counter (Beckman Coulter), and diluted into Complete Viability Media (RPMI+2 mM L-Glutamine+1× Anti-Anti+1% FBS+[…]) at a density of 10,000 cells/mL. 12-point, two-fold dilution series of test compounds (starting at 10 mM) were prepared in 100% DMSO, and then 450 nL of the dilution series were stamped in triplicate into 384-well, white, opaque bottom, TC-treated CulturPlate™ (Perkin Elmer 6007680) using acoustic dispensing (Labcyte Echo 550). 50 μL/well of the diluted C4-2 cells (500 cells/well) were added directly to the plates containing dispensed compounds, yielding a final [DMSO] of 0.9% and a final top [compound] of 90 μM. The plates were centrifuged for 1 min at 500×g and then incubated for 6 days at 37° C., 5% CO2. Cell density at the end of the assay was measured using 35 μL/well CellTiter-Glo® (Promega) per the manufacturer's recommendations, and total luminescence was measured on a Cytation 5 plate reader. Raw luminescence values were normalized from 0 (empty Viability Media+0.9% DMSO, no cells) to 100 (Cells+0.9% DMSO, maximum proliferation), triplicate values were averaged, and dose-response curves were fit and G150 values extracted using variable slope nonlinear regression in GraphPad Prism.

Row | Structure (SMILES) | IC50 [1] [nM] | IC50 [3] [nM] | GI50 ([4]; Homo sapiens, 144 h) [µM] | GI50 [4] [µM] | tumor volume compared to vehicle control [2]
1 | O=C1c2ccc(-c3cc(F)c(O)c(F)c3)nc2CCC1c1ccccc1 (stereo not drawn) [Compound 10, 2-(3,5-difluoro-4-hydroxyphenyl)-6-phenyl-7,8-dihydroquinolin-5(6H)-one] | 79 | – | 10 | – | –
2 | O=C1c2ccc(-c3cc(F)c(O)c(F)c3)nc2CCC1Cc1ccccc1 (stereo not drawn) [Compound 9, 6-benzyl-2-(3,5-difluoro-4-hydroxyphenyl)-7,8-dihydroquinolin-5(6H)-one] | 37 | 10 | 6 | – | –
3 | CC1(C)CCc2nc(-c3cc(F)c(O)c(F)c3)ccc2C1(O)C1CC1 (stereo not drawn) [Compound 20] | 331 | – | 30 | – | –
4 | C[C@]12CCC(=O)C=C1CC[C@@H]1[C@@H]2CC[C@]2(C)C(c3cccnc3)=CC[C@@H]12 [D4-Abiraterone, reference compound] | – | – | – | 2.4 ± 0.4 | –
5 | CC[C@@]1(C)CCc2nc(-c3cc(F)c(O)c(F)c3)ccc2C1=O [Compound 55] | 89 | 0.7 | – | – | –
6 | CC1(C)CCc2nc(-c3cc(F)c(O)c(F)c3)ccc2C1(C)O (stereo not drawn) [Compound 16] | 376 | – | 20 | – | –
7 | CC1(C)CCc2nc(-c3cc(F)c(O)cc3F)ccc2C1=O [Compound 25] | 84 | 1 | – | – | –
8 | CCC1(CC)CCc2nc(-c3cc(F)c(O)c(F)c3)ccc2C1=O [Compound 59] | 71 | 3.8 | – | – | –
9 | CC1(C)CCc2nc(-c3cc(F)c(O)c(F)c3)ccc2C1O (stereo not drawn) [Compound 12] | 2560 | – | 61 | – | –
10 | CCOC1CCCc2nc(-c3cc(F)c(O)c(F)c3)ccc21 (stereo not drawn) [Compound 76] | 389 | – | – | – | –
11 | O=C1c2ccc(-c3cc(F)c(O)c(F)c3)nc2CCC12COCOC2 [Compound 62] | 541 | – | – | – | –
12 | O=C1c2ccc(-c3cc(F)c(O)c(F)c3)nc2CCC1Cc1cccnc1 (stereo not drawn) [Compound 39] | 249 | – | – | – | –
13 | O=C1c2ccc(-c3cc(F)c(O)c(F)c3)nc2CCC1Cc1ccccn1 (stereo not drawn) [Compound 38] | 272 | – | – | – | –

Further lines, with some results ahead:

Row | IC50 [1] [nM] | IC50 [3] [nM] | GI50 ([4]; Homo sapiens, 144 h) [µM] | GI50 [4] [µM] | Structure (SMILES) | tumor volume compared to vehicle control [2]
14 | 71 | 1.4 | 26 | – | CC1(C)CCc2nc(-c3cc(F)c(O)c(F)c3)ccc2C1=O [Compound 5, 2-(3,5-difluoro-4-hydroxyphenyl)-6,6-dimethyl-7,8-dihydroquinolin-5(6H)-one] | reduction in tumor volume
15 | 62 | 83 | 53 | – | O=C1CCCc2nc(-c3cc(F)c(O)c(F)c3)ccc21 [Compound 1, 2-(3,5-difluoro-4-hydroxyphenyl)-7,8-dihydroquinolin-5(6H)-one] | reduction in tumor volume
16 | 105 | – | 16 | – | CCC1CCc2nc(-c3cc(F)c(O)c(F)c3)ccc2C1=O (stereo not drawn) [Compound 8, 2-(3,5-difluoro-4-hydroxyphenyl)-6-ethyl-7,8-dihydroquinolin-5(6H)-one] | –
17 | 79 | 68 | – | – | O=C1c2ccc(-c3cc(F)c(O)c(F)c3)nc2CCC1(F)F [Compound 41] | –
18 | 64 | 7.2 | 37 | – | CC1CCc2nc(-c3cc(F)c(O)c(F)c3)ccc2C1=O (stereo not drawn) [Compound 7, 2-(3,5-difluoro-4-hydroxyphenyl)-6-methyl-7,8-dihydroquinolin-5(6H)-one] | –
19 | 68 | 4.8 | 10 | – | O=C1c2ccc(-c3cc(F)c(O)c(F)c3)nc2CCC12CC2 [Compound 11] | –
20 | 45 | 14 | 59 | – | O=C1CCCc2nc(-c3ccc(O)c(F)c3)ccc21 [Compound 2, 2-(3-fluoro-4-hydroxyphenyl)-7,8-dihydroquinolin-5(6H)-one] | –
21 | 297 | – | – | – | O=C1CCc2nc(-c3cc(F)c(O)c(F)c3)ccc21 [Compound 22] | –
22 | 288 | – | – | – | CC1(C)CCc2nc(-c3ccc(O)c(F)c3)ncc2C1=O [Compound 84] | –
